From US9943566B2, “NF-κB inhibitor composition for skin health” (Geoffrey Brooks Consultants, LLC, priority 2016, dated 2018)

System: cultured human fibroblasts
Assay: DNA microarray analysis of gene expression in cultured human fibroblasts treated with peptides
Type: cell-based
Settings: for Peptide Fluorescent Intensity: TGFB / Peptide Fluorescent Intensity: TGFBR1 / Peptide Fluorescent Intensity: TGFBR3: TGF Family Molecules
Description: Expression levels for a variety of different genes treated with N-M-A-N-A-K (SEQ ID NO: 1) and A-N-V-A-E-N-A (SEQ ID NO: 2) were determined using DNA microarray analysis of cultured human fibroblasts at BioInnovation Laboratories, Inc., Lakewood, Colo.
The microarrays were scanned with an Axon GenePix 4100A Scanner with the scanning resolution set to 10 μm and analyzed with GenePix Pro software. During the initial scan the PMT gains for the scanner were adjusted such that the Cy5/Cy3 image count ratios were between 0.9 and 1.1.
To derive the standard curve for the assay, the relative fluorescent units versus the known RNA concentrations in μg/ml for the standards were plotted and subjected to regression analysis to establish the line that best fit the data points. Mean RFU values for the test materials and untreated samples were used to estimate the amount of RNA present in each sample.
Because the level of gene expression is related to the fluorescence intensity of the probed gene marker on the microarray, and since it is possible to have differences in labeling efficiency when making the Cy3 and Cy5 probes, it is essential to normalize the fluorescence measurements between the two respective dyes before examining changes in gene expression. As a result, fluorescence intensities for the microarrays were subjected to global normalization. The total fluorescent signal for both dyes was normalized with a correction factor so that the ratio of total intensities for both dyes was equal to one.
The resulting normalized total fluorescent signals for peptides, N-M-A-N-A-K (SEQ ID NO: 1) and A-N-V-A-E-N-A (SEQ ID NO: 2) with a variety of gene samples are shown in Table 1.

[1] = 10 ppm peptide, Additional Genes
[2] = 10 ppm peptide, Anti-Inflammatory
[3] = 10 ppm peptide, Extracellular Matrix Genes Regulated by TGF Beta
[4] = 10 ppm peptide, Genes that Regulate Wound Healing (regulated by TGF beta)
[5] = 10 ppm peptide, Molecules that Regulate TGF Beta Expression/Activity
[6] = 10 ppm peptide, TGF Beta Signaling Pathway Molecules

In the case of “Asparagine-Methionine-Alanine-Asparagine-Alanine-Lysine (Asn-Met-Ala-Asn-Ala-Lys) [NMANAK]”, the “number of anti-inflammatory genes upregulated (COX1, COX411, COX7C, COX8A, DEFB4, IL10RB, IL26, IL27, ILF2, ILDR1)” value (10 ppm peptide) is reported as ≥ 10, the “Peptide Fluorescent Intensity: AQP3” value [1] is reported as 3.294 and the “Peptide Fluorescent Intensity: EEF1A1 (cell growth)” value [1] is reported as 6.301. For the same substance, the “Peptide Fluorescent Intensity: EEF1A2 (cancer cell growth)” value [1] was 0.067, the “Peptide Fluorescent Intensity: EEF1G (aminoacyl transferase - glutathione)” value [1] was 1.928 and the “Peptide Fluorescent Intensity: LOX” value [1] was 1.035. For the same substance, the “Peptide Fluorescent Intensity: OGG1” value [1] was 1.176, the “Peptide Fluorescent Intensity: PLOD” value [1] was 1.105 and the “Peptide Fluorescent Intensity: PLOD2” value [1] was 1.085. The “Peptide Fluorescent Intensity: PLOD3” value [1] was 4.092, the “Peptide Fluorescent Intensity: RAD23A” value [1] was 0.933 and the “Peptide Fluorescent Intensity: RAD23B” value [1] was 0.603. For the same substance, the “Peptide Fluorescent Intensity: SIRT1” value [1] was 0.410, the “Peptide Fluorescent Intensity: SIRT3” value [1] was 0.735 and the “Peptide Fluorescent Intensity: SIRT 5” value [1] was 1.482. For the same substance, the “Peptide Fluorescent Intensity: COX1” value [2] was 2.645, the “Peptide Fluorescent Intensity: COX7C” value [2] was 1.341 and the “Peptide Fluorescent Intensity: COX8A” value [2] was 1.803. The “Peptide Fluorescent Intensity: COX411” value [2] was 2.067, the “Peptide Fluorescent Intensity: DEFB4” value [2] was 4.798 and the “Peptide Fluorescent Intensity: IL10RB” value [2] was 1.889. The “Peptide Fluorescent Intensity: IL26” value [2] was 2.036, the “Peptide Fluorescent Intensity: IL27” value [2] was 2.257 and the “Peptide Fluorescent Intensity: ILDR1 (immunoglobin receptor)” value [2] was 1.546. The “Peptide Fluorescent Intensity: ILF2” value [2] was 4.120, the “Peptide Fluorescent Intensity: BMP7” value [3] was 2.000 and the “Peptide Fluorescent Intensity: COL1A2” value [3] was 3.992. For the same substance, the “Peptide Fluorescent Intensity: COL3A1” value [3] was 2.047, the “Peptide Fluorescent Intensity: COL6A1” value [3] was 3.446 and the “Peptide Fluorescent Intensity: COL6A2” value [3] was 1.705. The “Peptide Fluorescent Intensity: COL7” value [3] was 1.080, the “Peptide Fluorescent Intensity: CTGF” value [3] was 0.429 and the “Peptide Fluorescent Intensity: EGFR” value [3] was 1.159. The “Peptide Fluorescent Intensity: ELA2A (elastase)” value [3] was 3.148, the “Peptide Fluorescent Intensity: ELN” value [3] was 0.773 and the “Peptide Fluorescent Intensity: FGF3 (fibroblast growth factor)” value [3] was 2.000. The “Peptide Fluorescent Intensity: MMP1” value [3] was 1.164, the “Peptide Fluorescent Intensity: MMP2” value [3] was 0.785 and the “Peptide Fluorescent Intensity: PDGFR alpha subunit” value [3] was 1.608. The “Peptide Fluorescent Intensity: TIMP1” value [3] was 4.057, the “Peptide Fluorescent Intensity: Tenascin (TNXB)” value [3] was 1.752 and the “Peptide Fluorescent Intensity: FGF2” value [4] was 0.679. For the same substance, the “Peptide Fluorescent Intensity: VEGFA” value [4] was 1.385, the “Peptide Fluorescent Intensity: Activin A beta subunit (INHBB)” value [5] was 0.095 and the “Peptide Fluorescent Intensity: BMP1” value [5] was 0.837. The “Peptide Fluorescent Intensity: Follistatin (FST)” value [5] was 0.665, the “Peptide Fluorescent Intensity: Inhibin (INHA)” value [5] was 1.917 and the “Peptide Fluorescent Intensity: LTBP (LTBP1)” value [5] was 0.268. The “Peptide Fluorescent Intensity: YY1” value [5] was 1.378, the “Peptide Fluorescent Intensity: CBP (CREBBP)” value [6] was 0.743 and the “Peptide Fluorescent Intensity: SAR1A” value [6] was 1.632. For the same substance, the “Peptide Fluorescent Intensity: SP1” value [6] was 0.932, the “Peptide Fluorescent Intensity: Smad1” value [6] was 0.918 and the “Peptide Fluorescent Intensity: Smad2” value [6] was 0.857. The “Peptide Fluorescent Intensity: Smad3” value [6] was 0.882, the “Peptide Fluorescent Intensity: Smad4” value [6] was 0.454 and the “Peptide Fluorescent Intensity: Smad6” value [6] was 1.354. The “Peptide Fluorescent Intensity: Smad7” value [6] was 1.160, the “Peptide Fluorescent Intensity: p38MAPK (MAPK14)” value [6] was 1.057 and the “Peptide Fluorescent Intensity: TGFB” value (10 ppm peptide) was 1.224. For the same substance, the “Peptide Fluorescent Intensity: TGFBR1” value (10 ppm peptide) was 0.373, the “Peptide Fluorescent Intensity: TGFBR3” value (10 ppm peptide) was 1.229 and the “effect on AQP3 (aquaporin3) and EEf1G (glutathione) genes” value (10 ppm peptide, in words) was “upregulated”. For the same substance, the “effect on genes expressing extra-cellular matrix components, including collagen production genes COL1A2, COL3A1, COL6A1 and COL6A2” value (10 ppm peptide, in words) was “upregulation” and the “effect on genes that control TGF-β expression (YY1, INHA)” value (10 ppm peptide, in words) was “upregulating”.
In the case of ANVAENA (TGF-beta mimic), the “Peptide Fluorescent Intensity: LOX” value [1] is reported as 0.974, the “Peptide Fluorescent Intensity: OGG1” value [1] is reported as 1.364 and the “Peptide Fluorescent Intensity: PLOD” value [1] is reported as 1.112. For the same substance, the “Peptide Fluorescent Intensity: PLOD2” value [1] was 0.445, the “Peptide Fluorescent Intensity: PLOD3” value [1] was 3.805 and the “Peptide Fluorescent Intensity: RAD23A” value [1] was 0.078. For the same substance, the “Peptide Fluorescent Intensity: RAD23B” value [1] was 1.218, the “Peptide Fluorescent Intensity: SIRT1” value [1] was 0.228 and the “Peptide Fluorescent Intensity: SIRT3” value [1] was 0.010. For the same substance, the “Peptide Fluorescent Intensity: TERT” value [1] was 0.198, the “Peptide Fluorescent Intensity: COL1A1” value [3] was 2.198 and the “Peptide Fluorescent Intensity: COL1A2” value [3] was 3.669. For the same substance, the “Peptide Fluorescent Intensity: COL3A1” value [3] was 2.987, the “Peptide Fluorescent Intensity: COL4A1” value [3] was 0.910 and the “Peptide Fluorescent Intensity: COL6A1” value [3] was 6.282. For the same substance, the “Peptide Fluorescent Intensity: COL6A2” value [3] was 2.902, the “Peptide Fluorescent Intensity: COL7” value [3] was 0.435 and the “Peptide Fluorescent Intensity: CTGF” value [3] was 0.076. The “Peptide Fluorescent Intensity: EGFR” value [3] was 1.133, the “Peptide Fluorescent Intensity: Fibronectin” value [3] was 1.407 and the “Peptide Fluorescent Intensity: IL-6” value [3] was 1.135. For the same substance, the “Peptide Fluorescent Intensity: MMP1” value [3] was 1.991, the “Peptide Fluorescent Intensity: MMP2” value [3] was 0.034 and the “Peptide Fluorescent Intensity: PDGFR alpha subunit” value [3] was 1.330. For the same substance, the “Peptide Fluorescent Intensity: TIMP1” value [3] was 4.567, the “Peptide Fluorescent Intensity: Tenascin (TNXB)” value [3] was 1.353 and the “Peptide Fluorescent Intensity: βIG-H3 (TGFBI)” value [3] was 2.069. For the same substance, the “Peptide Fluorescent Intensity: FGF2” value [4] was 0.912, the “Peptide Fluorescent Intensity: GM-CSF (CSF2)” value [4] was 0.014 and the “Peptide Fluorescent Intensity: VEGFA” value [4] was 0.798. The “Peptide Fluorescent Intensity: Activin A beta subunit (INHBB)” value [5] was 0.261, the “Peptide Fluorescent Intensity: BMP1” value [5] was 0.497 and the “Peptide Fluorescent Intensity: Follistatin (FST)” value [5] was 0.594. The “Peptide Fluorescent Intensity: Inhibin (INHA)” value [5] was 0.264, the “Peptide Fluorescent Intensity: LTBP (LTBP1)” value [5] was 0.652 and the “Peptide Fluorescent Intensity: MMP2” value [5] was 0.034. For the same substance, the “Peptide Fluorescent Intensity: YY1” value [5] was 0.713, the “Peptide Fluorescent Intensity: CBP (CREBBP)” value [6] was 0.375 and the “Peptide Fluorescent Intensity: SAR1A” value [6] was 1.905. The “Peptide Fluorescent Intensity: SP1” value [6] was 0.590, the “Peptide Fluorescent Intensity: Smad1” value [6] was 1.325 and the “Peptide Fluorescent Intensity: Smad2” value [6] was 0.824. For the same substance, the “Peptide Fluorescent Intensity: Smad3” value [6] was 1.202, the “Peptide Fluorescent Intensity: Smad4” value [6] was 0.374 and the “Peptide Fluorescent Intensity: Smad6” value [6] was 0.136. The “Peptide Fluorescent Intensity: Smad7” value [6] was 0.357, the “Peptide Fluorescent Intensity: p38MAPK (MAPK14)” value [6] was 0.594 and the “Peptide Fluorescent Intensity: p300 (EP300)” value [6] was 0.961. For the same substance, the “Peptide Fluorescent Intensity: TGFB” value (10 ppm peptide) was 0.113, the “Peptide Fluorescent Intensity: TGFBR1” value (10 ppm peptide) was 0.128 and the “Peptide Fluorescent Intensity: TGFBR3” value (10 ppm peptide) was 0.098. The “impact on anti-inflammatory genes” value (peptide alone, in words) was “does not impact anti-inflammatory genes significantly”.
